Assays:
Type in all cases: cell-based
[1] = tested on: EVI1 forms (MDS1/EVI1, EVI1, EVI1^Del190-515)
Protocol: (§1) Proteins were resolved on an 8%, 12%, or 15% SDS-PAGE gel (as appropriate) and electrophoretically transferred to polyvinyldifluoride (PVDF) membranes. After blocking with 5% (w/v) milk in TBST (Tris-Buffered Saline containing 0.1% Tween-20) for one hour at room temperature, membranes were incubated with primary antibodies (at appropriate dilution) overnight at 4° C., followed by extensive washing and incubation for 1 hour with the appropriate horseradish peroxidase-conjugated secondary antibodies (BioRad, Hercules, Calif.). Blots were washed extensively. A rabbit polyclonal EVI1 antibody was obtained (1:3000 dilution, St. Jude's Children's Hospital, Memphis, Tenn.). SnoN rabbit polyclonal (1:1000 dilution), PML, and p21 SMURF2 rabbit polyclonal (1:500 dilution), MRP1 mouse monoclonal (1:500 dilution) and GAPDH mouse monoclonal (1:250 dilution) antibodies were obtained from Santa Cruz Biotechnology (Santa Cruz, Calif.). TGFβRII rabbit polyclonal (1:1000 dilution) antibody was obtained from Strategic Diagnostics (Newark, Del.). Smad2/3 rabbit polyclonal (1:1000 dilution), Beclin-1 rabbit polyclonal (1:1000 dilution), AKT rabbit polyclonal (1:1000 dilution), TAK1 rabbit polyclonal (1:1000 dilution), PARP rabbit polyclonal (1:1000 dilution), Beclin-1 rabbit polyclonal (1:1000 dilution), caspase-3 rabbit polyclonal (1:1000) which detects the pro-caspase form, and ATG5 rabbit polyclonal (1:1000 dilution), LC3-II rabbit polyclonal (1:1000 dilution) antibodies were obtained from Cell Signaling Technology (Danvers, Mass.). The HSP27 mouse monoclonal (1:1000 dilution) antibody was obtained from Stressgen (Ann Arbor, Mich.). Blots were developed using chemiluminescence substrates (Amersham Piscataway, N.J. or BioRad, Hercules, Calif.). Monoclonal PAI-1 antibody was obtained from BD Pharmingen. PSMAD2, total SMAD2/3, p-ERK, p-AKT, and total AKT antibodies were obtained from Cell Signaling Technology. A monoclonal antibody against Arkadia was obtained from Abnova (Taiwan).
(§2) Densitometric analysis was performed using the HP Scanjet 5590 and the Image J program (Image Processing and Analysis in Java, NIH Image Software). Bands were selected and the intensity values were normalized to those for GAPDH. The values are presented as fold-changes relative to control siRNA treated cells.
(§3) The clinical inhibitors As2O3, geldanamycin (17-AAG) (dissolved in dimethylsulfoxide [DMSO]), and MG132 (dissolved in DMSO) were obtained from Sigma-Aldrich (St. Louis, Mo.), Fisher Scientific (Pittsburgh, Pa.), and Alexis Biochemicals (Farmingdale, N.Y.), respectively. N-acetyl-L-cysteine (NAC; dissolved in media) and Bortezomib (PS-341; dissolved in DMSO) were obtained from Fisher Scientific. 3-Methyladenine (3-MA; dissolved in media) was obtained from MP Biomedicals (Solon, Ohio). Tiron (4,5-Dihydroxy-1,3-benzenedisulfonic acid, dissolved in media) was obtained from Fisher Scientific. zVAD-fmk (dissolved in DMSO) and bafilomycin A (dissolved in DMSO) was obtained from Axxora LLC (San Diego, Calif.). Bovine catalase was obtained from Sigma-Aldrich. HBED and Mn TBAP was obtained from ENZO Life Sciences (Farmingdale, N.Y.). Ovarian cells were plated in 6-well plates at 250,000 cells per well and grown in complete medium. The following day, the cells were treated with 5 μM MG132, As2O3 (between 2-50 μM), 17-AAG (between 2-50 μM), NAC (Fisher Scientific, between 25 μM to 1 mM), Tiron (between 25 μM to 1 mM), 3-MA (0.1 mM to 10 mM), or zVAD-fmk (25 μM to 100 μM). For control cells, DMSO (a final concentration of <0.5%) was added to compare appropriately to drugs dissolved in DMSO. After the appropriate incubation time (6 or 18 hours), cell lysates were collected, protein quantified, and SDS-PAGE/western analysis was performed. In addition, for selected studies, RNA was isolated, quantified, and used for qPCR analysis.

[2] = tested on: TAK1, SMAD2/3, TGFβRII, AKT, phospho-SMAD2; assay: Western analysis of other TGFβ signaling mediators
Protocol: as §1, §2, §3

T80, HEY and SKOV3 cells = assay: Annexin V-propidium iodide apoptosis assay; conditions: As2O3 treatment
Protocol: For assessment of apoptosis, the Annexin V-propidium iodide staining kit (Calbiochem, San Diego, Calif.) was used according to the manufacturer's protocol. Briefly, cells were treated with As2O3 for 24 hours at which time both the floating and adherent cells (removed by trypsinization) were collected. Cells were resuspended in PBS followed by the addition of annexin V-FITC and propidium iodide. The samples were then analyzed by flow cytometry at the MD Anderson Cancer Center FACS Core Facility. The FITC and the propidium iodide signals were detected at 518 nm with FL1 and at 620 nm with FL2, respectively.

EVI1 and TGFβRII RNA = assay: qPCR of EVI1 and TGFβRII RNA levels; conditions: 5 μM As2O3, 18 hours
Protocol: RNA was isolated using the RNeasy Mini Kit (Qiagen, Valencia, Calif.) from normal, benign, stage I-IV ovarian patient samples and quantitative PCR was performed. A one-step RT-PCR Taqman master mix from Applied Biosystems (Foster City, Calif.) and primers for genes in the 3q26.2 amplicon were obtained using Genebank sequences as well as from Assays on Demand (Hs00180524_m1 (SnoN/SkiL)), with the following primers and probe sets.
EVI1 Exon III—(detects both EVI1 and MDS1/EVI1):
Primers/probe sequences for SnoN (Hs00180524_m1), TGFβRII (Hs00234253_m1), and LC3 (Hs00261291_m1) were obtained from Applied Biosystems (Assays by Design).
mRNA levels were determined using the One-Step-Plus Applied Biosystems Detection System or ABI PRISM 7700 Sequence Detection System using β-actin as a reference. […] 95° C. for 15 s followed by 60° C. for 1 min Using the correlative method, RNA-fold change in expression was calculated as Ct of gene—Ct of β-actin to generate ΔCt from which ΔCt of the normal sample was subtracted. […]
The clinical inhibitors As2O3, geldanamycin (17-AAG) (dissolved in dimethylsulfoxide [DMSO]), and MG132 (dissolved in DMSO) were obtained from Sigma-Aldrich (St. Louis, Mo.), Fisher Scientific (Pittsburgh, Pa.), and Alexis Biochemicals (Farmingdale, N.Y.), respectively. […] In addition, for selected studies, RNA was isolated, quantified, and used for qPCR analysis.

[3] = HEY and OVCA429, 18 hours, increasing doses

With Arsenic trioxide [As2O3] the “EVI1 and EVI1^Del190-515 protein expression” value ([1]; 5 μM As2O3) was “reduced”, the MDS1/EVI1 protein expression ([1]; 5 μM As2O3) was “remained unchanged” and the “protein levels of EVI1 forms” value [1, 3] was “markedly decreased”. The “TAK1, SMAD2/3, TGFβRII and AKT protein” value [2, 3] was “markedly reduced”, the “EVI1, TAK1, SMAD2/3, TGFβRII expression levels” value ([2]; HEY, 18 hours As2O3) was “Dramatic decreases” and the apoptotic percentage (T80, HEY and SKOV3 cells; SKOV3 and HEY) was under 20%. The apoptotic percentage (T80, HEY and SKOV3 cells; T80 (low expressing EVI1 cell line)) was over 80% and the “decrease in EVI1 and TGFβRII RNA levels” value (EVI1 and TGFβRII RNA) was under 20%.
